Experimental data as given in patent EP2313424B1, “ANIONIC PREGNANE COMPOUNDS, METHOD FOR THEIR PRODUCING AND USE OF THEM” (Ústav organické chemie a biochemie Akademie ved Ceské …, priority 2008, dated 2010).
Like-named read-outs stand apart in the source and are kept apart here.

System: NMDA receptor
Assay: Whole-cell voltage-clamp recording of NMDA-induced currents in cultured hippocampal neurons
Type: cell-based, rats
Conditions: for IC50: estimated from relative inhibition at 100 µM steroid with the logistic equation, apparent Hill coefficient 1.2, 100 µM NMDA; for mean inhibitory effect on NMDA-induced currents: 100 µM steroid, responses elicited by 100 µM NMDA
[1] = relative degree of inhibition by 100 µM steroid of current responses induced by fast application of 100 µM NMDA, cultured hippocampal neurons, holding potential -60 mV
[2] = cultured hippocampal neurons, holding potential -60 mV

Molecule	IC50 (cultured hippocampal neurons)	Inhibition (X) [1]	Inhibition (X)	mean inhibitory effect on NMDA-induced currents [2]	mean inhibitory effect on NMDA-induced currents (cultured hippocampal neurons, holding potential -60 mV, listed as 5β-pregnenolone sulfate)
20-Oxo-5α-pregnane-3α,7α-diyl 3-Sulfate 7-Nicotinate Pyridinium Salt [Example 10]	154 µM	37.8			
20-Oxo-5β-pregnane-3α,7α-diyl 3-Sulfate 7-Nicotinate Pyridinium Salt [Example 19]	116 µM	46.9			
CC(=O)O[C@@H]1C[C@@H]2C[C@H](OC(=O)CCC(=O)O)CC[C@]2(C)[C@H]2CC[C@]3(C)[C@@H](C(C)=O)CC[C@H]3[C@H]12 [Example 12, 20-Oxo-5β-pregnane-3α,7α-diyl 3-Hemisuccinate 7-Acetate]	300 µM	21.4			
20-Oxo-5α-pregnane-3α,7α-diyl 3-Sulfate 7-Acetate Pyridinium Salt [Example 4]	167 µM		35.2		
20-Oxo-5β-pregnan-3α,7α-diyl 3-Sulfate 7-Acetate Pyridinium Salt [Example 13]	186 µM	34.1			
pregnanolone sulfate [reference compound]				71.3 ± 5.0%	71%
CC(=O)O[C@@H]1C[C@H]2C[C@H](OC(=O)CCC(=O)O)CC[C@]2(C)[C@H]2CC[C@]3(C)[C@@H](C(C)=O)CC[C@H]3[C@H]12 [Example 3, 20-Oxo-5α-pregnane-3α,7α-diyl 3-Hemisuccinate 7-Acetate]	384 µM	17.4			
CC(=O)O[C@@H]1C[C@H]2C[C@H](OS(=O)(=O)[O-])CC[C@]2(C)[C@H]2CC[C@]3(C)[C@@H](C(C)=O)CC[C@H]3[C@H]12.[Na+] [Example 5, 20-Oxo-5α-pregnan-3α,7α-diyl 3-Sulfate 7-Acetate Sodium Salt]				17%	
